This is an account of results in US20240182492A1, “AZAHETEROARYL COMPOUND, PREPARATION METHOD THEREFOR, AND APPLICATION THEREOF” (SHANGHAI BLUERAY BIOPHARMA CO., LTD., priority 2021, published 2024).

Broadly, the IC50 is the midpoint of a concentration-inhibition curve. Read a high IC50 as weaker potency.

Test [1] concerns trimethylation level of histone H3K27 in G401 cells. In words: ELISA (H3K27 trimethylation) analysis in G401 cells. It counts as cell-based. Particulars: Homo sapiens, G-401, 72 h, H3K27me3 normalized by H3. How it is done: Example 54: ELISA (H3K27 Trimethylation) Analysis
Representative compounds of the present disclosure are diluted in DMSO with 3-fold gradient, and 10 concentration gradients are tested per compound. The maximum testing concentration is 10 μM. The compound is diluted 200-fold into G401 cells cultured in 96-well plates (the final concentration of DMSO is 0.5%). After the cells are cultured for 72 hours, the trimethylation level of histone H3K27 is detected by ELISA method.
Histone extraction: compound-treated cells in a 96-well plate are washed 3 times with 1×PBS (10×PBS buffer (80 g NaCl (Sigma, Product No. S3014), 2 g KCl (Sigma, Product No. 60128), 14.4 g Na2HAPO4 (Sigma, Product No. S5136) and 2.4 g KH2PO4 (Sigma, Product No. P9791) are added to 1 L water, pH to 7.4), and 100 μL of 0.4N HCl is added to each well. The 96-well plate is placed at 4° C. and gently shaken for 2 hours to lyse the cells. The cell lysate is then neutralized with 80 μL of neutralization buffer (0.5M disodium hydrogen phosphate, pH 12.5, 2.5 mM DTT; 1% cocktail (Sigma, Product No. P8340) (mixing the cell lysate and neutralization buffer thoroughly).
ELISA detection method: the cell lysates are transferred in parallel to two 384-well assay plates (PerkinElmer, OptiPlate-384HB, Product No. 6007290). One plate is used to detect the trimethylation level of H3K27, and the other plate is used to measure the level of H3. PBS is adjusted to a final volume of 50 μL/well. The wells are coated overnight at 4° C. On the next day, the solution in the wells was discarded. TBST buffer (1 xTBS (10×TBS: 24.2 g Tris (Sigma, Product No. T6066) and 80 g NaCl (Sigma, Product No. S3014) are added to 1 L water, and pH is adjusted to 7.6 with HCl) and 0.1% Tween-20) is used to wash it 5 times, and the water is dried on absorbent papers. 70 μL of blocking buffer (TBST, 5% BSA) is added to the coated reaction wells, and the wells are incubated for 1 hour at room temperature. The blocking buffer was discarded, and the primary antibody is added (30 μL/well). The required primary antibodies are diluted with blocking buffer, and the dilution ratios were as follows: anti-H3K27me3 antibody (Cell Signaling Technology, Product No. 9733), 1:2000 dilution; anti-H3 antibody (Cell Signaling Technology, Product No. 4499), 1:10000 dilution. After adding the primary antibody, the wells are incubated at room temperature for 1 hour. After washing with TBST for 5 times, the water are dried. The secondary antibody (30 μL/well) is added to each reaction well, and the wells are incubated at room temperature for 1 hour. Secondary antibody (anti-rabbit antibody (Jackson ImmunoResearch, Product No. 111-035-003)) is used after dilution 2000-fold in blocking buffer. After 1 hour, it is washed with TBST and dried. 30 μL of ECL substrate (Pierce, Product No. 34080) is added to each well and centrifuged for 30 seconds at 2000 rpm. Signal of each sample is detected using Molecular Devices, SpectraMax. Data processing: H3K27 methylation readings are first normalized by H3 signal. 0.500 DM8)-treated sample is used as a control, and the inhibition percentage of the compound is calculated. The data is fitted to a dose-response curve using the GraphPad prisim5 program, obtaining the IC50 values of the test compounds.
In general terms: ELISA stands for enzyme-linked immunosorbent assay.

The subject of test [2] is B-cell non-Hodgkin lymphoma cells KARPAS-422. The test can be described thus: Cell proliferation analysis, KARPAS-422, 13 days, CellTiter-Glo. It counts as cell-based, Human. Conditions: Homo sapiens, KARPAS-422, 312 h, Karpas-422, 13 days. On the procedure:
Example 55: Cell Proliferation Analysis
Human B-cell non-Hodgkin lymphoma cells KARPAS-422 S were cultured in culture flasks using standard cell culture conditions. The culture medium contains 15% fetal bovine serum (FBS, Invitrogen, product number 10099-141), 1% penicillin/streptomycin solution (P/S) RPMI-1640 (Invitrogen, product number 11875), and the culture flask is placed and cultured in a sterile incubator at 37° C., 95% relative humidity, and 5% CO2. In order to detect the effect of PRC2 inhibitors on cell proliferation, cells in the exponential growth phase were seeded into 96-well plates (Corning, product number 3904) at a density of 1×10^4 cells/well, and 100 μL of medium was added to each well. Subsequently, the compounds disclosed herein at different concentrations were added to the wells seeded with cells (9 concentration gradients were set for each compound, and the highest detection concentration was 10 μM, 3-fold gradient dilution), and 2 repeats in parallel were set for each treatment concentration. The final concentration of DMSO is 0.5%. Then the number of surviving cells was counted with Vi-CELL (Beckman Coulter) every 3-4 days. The cells counted each time were seeded into a new 96-well plate at the same density (1×10^4 cells/well). The wells were supplemented with fresh medium to 100 μL, and different concentrations of the compound were added at the same time. The cells were cultured until the 13th day, on which 100 μL of CellTiter-Glo (CellTiter-GloCellTiter-GloCellTiter-GloCTG) (Promega, Product No. G7573) was added to each well. The plate was placed for 10-20 minutes in the dark at room temperature, and Molecular Devices and SpectraMax i3X were used to read the luminous signal. The data were fitted to a dose-response curve using GraphPad prisim5 and the IC50 values of the tested compounds were obtained.
In general terms: In ATP-based viability assays light output follows the ATP content of the culture.

Test [3] addresses T1, EED protein (full-length, His6 tag) binding to H3K27me3 polypeptide (Homo sapiens, UniProt O75530).
T1 construct: The full-length EED protein (441 amino acids) with His6 tag
The test can be described thus: AlphaScreen evaluation of blocking the binding of EED to H3K27Me3. Particulars: EED / biotinylated H3K27me3 peptide competition. On the procedure: Example 53: Evaluation of the Effect of the Compound in Blocking the Binding of EED to H3K27Me3 by AlphaScreen (a-Screening) Method
First, compound solutions with different concentration gradients are prepared. Compound powder is dissolved in DMSO to form mother liquor. 1.5 μL of the compound mother liquor is taken to 198.5 μL reaction buffer (25 mM HEPES (pH 8.0), 50 mM NaCl, 0.015% Tween 20, 0.5% BSA) and the solution is mix uniformly, and then 3-fold gradient dilution is performed with the above buffer containing 0.75% DMSO. 9 different test concentrations are set for the same compound. 5 μL of compounds with different concentration gradients was taken to ProxiPlate-384 Plus, White detection plate (PerkinElmer, 6008280), and 2 parallel replicates are set for each concentration gradient.
Next, a binding blocking reaction is performed. The full-length EED protein (441 amino acids) with His6 tag is diluted to 60 nM with the above buffer, and the biotinylated polypeptide fragment H3K27me3 (amino acids 19-33) (Biotinylated-H3K27me3) is diluted to 75 nM with the same buffer. 5 μL of 75 nM peptide fragments and 5 μL of 60 nM protein are transferred to the testing wells containing the compound respectively. The testing plate is sealed with a film, and is incubated for 30 minutes at room temperature.
Finally, AlphaScreen method is used for detection. Before use, nickel chelate acceptor beads and streptavidin donor beads (Perkin Elmer, product number 6760619M) are mixed into the above reaction buffer at a ratio of 1:1, and then 5 μL of the above pre-mixed testing solution is added to each testing well. The final concentration of the donor beads and acceptor beads is 5 μg/mL. The testing plate is covered with tin foil and placed at room temperature in the dark for 1 hour. Signals are read using an AlphaScreen detector on a Spectra max i3. The AlphaScreen signal is normalized according to the readings obtained from the positive control (maximum signal control) and negative control (minimum signal control) to give the inhibition rate of different concentrations of the compound. After that, non-linear regression analysis was performed with GraphPad Prism 5, and dose-response equation Y=Bottom+(Top−Bottom)/(1+10^((Log IC50−X)*HillSlope)) is used to make an inhibition curve, obtaining the IC50 value of each compound. […]
(In general: Alpha assays give light when donor and acceptor beads are brought close together.)

Molecules are shown by their SMILES.

T1 sequence (O75530 whole entry): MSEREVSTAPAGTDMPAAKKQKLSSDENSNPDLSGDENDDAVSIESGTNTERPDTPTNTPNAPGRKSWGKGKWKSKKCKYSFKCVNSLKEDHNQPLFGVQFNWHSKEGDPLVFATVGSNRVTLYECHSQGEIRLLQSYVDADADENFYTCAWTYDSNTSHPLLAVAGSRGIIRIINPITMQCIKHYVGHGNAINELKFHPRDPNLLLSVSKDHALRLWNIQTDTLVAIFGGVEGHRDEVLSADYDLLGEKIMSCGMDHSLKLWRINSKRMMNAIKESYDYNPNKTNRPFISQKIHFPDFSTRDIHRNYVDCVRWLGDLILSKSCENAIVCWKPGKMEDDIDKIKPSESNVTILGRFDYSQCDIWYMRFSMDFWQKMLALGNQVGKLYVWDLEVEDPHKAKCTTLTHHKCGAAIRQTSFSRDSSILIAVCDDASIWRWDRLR

Regarding `CCC(C)(O)c1ccc(-c2cnc(NCc3c(F)ccc4c3CCO4)n3cnnc23)c2ncnn12` (stereo not drawn) [2-(8-(5-(((5-fluoro-2,3-dihydrobenzofuran-4-yl)methyl)amino)-[1,2,4]triazolo[4,3-c]pyrimidin-8-yl)-[1,2,4]triazolo[1,5-a]pyridin-5-yl)butan-2-ol], the figures for the IC50 in test [1], in test [2] and in test [3] were 0.0021 µM, 0.0052 µM and 0.0075 µM, respectively.
In the case of `CC(C)(O)c1ncc(-c2cnc(NCc3c(F)ccc4c3CCO4)n3cnnc23)c2ncnn12` [2-(8-(5-(((5-fluoro-2,3-dihydrobenzofuran-4-yl)methyl)amino)-[1,2,4]triazolo[4,3-c]pyrimidin-8-yl)-[1,2,4]triazolo[1,5-c]pyrimidin-5-yl)propan-2-ol], the IC50 in test [1] was 0.0028 µM; in test [2], 0.0066 µM; in test [3], 0.0062 µM.
For the compound `CCC(O)(CC)c1ccc(-c2cnc(NCc3c(F)ccc4c3CCO4)n3cnnc23)c2ncnn12` [3-(8-(5-(((5-fluoro-2,3-dihydrobenzofuran-4-yl)methyl)amino)-[1,2,4]triazolo[4,3-c]pyrimidin-8-yl)-[1,2,4]triazolo[1,5-a]pyridin-5-yl)pentan-3-ol], the IC50 in test [1] is 0.0024 µM; in test [2] it was 0.0077 µM; in test [3], 0.0035 µM.
